Experimental data: patent publication US9809589B2, “Crystal form of compound used as mineralocorticoid receptor antagonist and preparation method therefor” (KBP BIOSCIENCES CO., LTD., priority 2012, dated 2017)

Assay: Assay 2: stability (influencing factor tests) for Crystal Form II; HPLC content
Assay type: physicochemical
Procedure: Stability for Crystal Form II of the present compound
Crystal Form II of the compound represented by formula (1): Crystal Form II was prepared according to Example 4.
(§1) (1) Crystal Form II of the compound represented by formula (1) was laid on a dry and clean watch glass, and kept at 60° C. for 10 days. Sample was taken on Day 10. The contents of the relevant substance and the compound represented by formula (1) in the sample were measured, and compared with the contents of those in the sample taken on Day 0;
(2) Crystal Form II of the compound represented by formula (1) was packaged and sealed with a low-density polyethylene bag for pharmaceutical use in the inner layer and with a polyester/aluminum/polyethylene composite film for pharmaceutical package in the outer layer, and kept at 60° C. for 10 days. Sample was taken on Day 10. The contents of the relevant substance and the compound represented by formula (1) in the sample were measured, and compared with the contents of those in the sample taken on Day 0.
High humidity test: Crystal Form II of the compound represented by formula (1) was laid on a dry and clean watch glass, and kept at 25° C. under a relative humidity of 90%±5% for 10 days. Sample was taken respectively on Day 10. The contents of the relevant substance and the compound represented by formula (1) in the sample were measured, and compared with the contents of those in the sample taken on Day 0.
as §1, with “Photostability test: Crystal” for “(1) Crystal”, “at an illuminance of 5000 L×±500 L× in an illumination box” for “at 60° C.”, “Day 0.” for “Day 0;”
The content of the compound represented by formula (1) was measured by using an external standard method in accordance with the High Performance Liquid Chromatography in Chinese Pharmacopoeia, Appendix V D, Edition 2010.
The content of the relevant substance was measured by using an area normalization method in accordance with the High Performance Liquid Chromatography in Chinese Pharmacopoeia, Appendix V D, Edition 2010.

[1] = 60° C.-(1), open watch glass, Day 10
[2] = 60° C.-(2), packaged and sealed, Day 10

Content of the compound represented by formula (1) [1]: 96.2%
Content of the relevant substance [1]: 2.8%
Content of the compound represented by formula (1) [2]: 97.1%
Content of the relevant substance [2]: 2.7%
Content of the compound represented by formula (1) (5000 Lx ± 500 Lx, Day 10): 95.5%
Content of the relevant substance (5000 Lx ± 500 Lx, Day 10): 2.8%
Content of the compound represented by formula (1) (Day 0): 96.2%
Content of the relevant substance (Day 0): 2.6%
Content of the compound represented by formula (1) (RH90% ± 5%, 25° C., Day 10): 96.9%
Content of the relevant substance (RH90% ± 5%, 25° C., Day 10): 2.6%
Change of contents of the relevant substance and the compound represented by formula (1) (high temperature, high humidity, illumination): substantially did not change
SMILES: N#Cc1ccc(N2N=C3c4ccc(C(=O)N5CCC(O)CC5)nc4CC[C@@H]3[C@@H]2C2CCCC2)cc1Cl [Crystal Form II, 2-chloro-4-[(3S,3aR)-3-cyclopentyl-7-(4-hydroxypiperidin-1-carbonyl)-3,3a,4,5-tetrahydro-2H-pyrazolo[3,4-f]quinolin-2-yl]benzonitrile]
Stability compared with the amorphous form: superior to the amorphous form in the stability
